Results taken from the kinase profiling compilation of Christmann-Franck et al. (2016).

How the values were obtained:
Assay in all cases: radiometric filter-binding kinase assay
MAPK11 (human) = MAPK11 (human) (UniProt Q15759)
TTK (human) = TTK (human) (UniProt P33981)
SYK (human) = SYK (human) (UniProt P43405)
MAPK1 (human) = MAPK1 (human) (UniProt P28482)
MAP2K1 (human) = MAP2K1 (human) (UniProt Q02750)
MAPKAPK5 (human) = MAPKAPK5 (human) (UniProt Q8IW41)
MYLK (human) = MYLK (human) (UniProt Q15746)
IRAK4 (human) = IRAK4 (human) (UniProt Q9NWZ3)
BRSK2 (human) = BRSK2 (human) (UniProt Q8IWQ3)
CSNK2A1 (human) = CSNK2A1 (human) (UniProt P68400)
MAPK15 (human) = MAPK15 (human) (UniProt Q8TD08)
EEF2K (human) = EEF2K (human) (UniProt O00418)
AURKB (human) = AURKB (human) (UniProt Q96GD4)
MAPK10 (human) = MAPK10 (human) (UniProt P53779)
BRSK1 (human) = BRSK1 (human) (UniProt Q8TDC3)
INSR (human) = INSR (human) (UniProt P06213)
MAPKAPK3 (human) = MAPKAPK3 (human) (UniProt Q16644)
PAK4 (human) = PAK4 (human) (UniProt O96013)
GSK3B (human) = GSK3B (human) (UniProt P49841)
MST4 (human) = MST4 (human) (UniProt Q9P289)
NEK6 (human) = NEK6 (human) (UniProt Q9HC98)
MARK3 (human) = MARK3 (human) (UniProt P27448)
RPS6KA3 KD1 KD2 (human) = RPS6KA3 KD1 KD2 (human) (UniProt P51812)
CHEK1 (human) = CHEK1 (human) (UniProt O14757)
CSK (human) = CSK (human) (UniProt P41240)
RPS6KA5 KD1 KD2 (human) = RPS6KA5 KD1 KD2 (human) (UniProt O75582)
HIPK1 (human) = HIPK1 (human) (UniProt Q86Z02)
CaMK1 (human) = CaMK1 (human) (UniProt Q14012)
RPS6KA1 KD1 KD2 (human) = RPS6KA1 KD1 KD2 (human) (UniProt Q15418)
Chain of RPS6KA1 KD1 KD2 (human) (Q15418 whole entry, looked up): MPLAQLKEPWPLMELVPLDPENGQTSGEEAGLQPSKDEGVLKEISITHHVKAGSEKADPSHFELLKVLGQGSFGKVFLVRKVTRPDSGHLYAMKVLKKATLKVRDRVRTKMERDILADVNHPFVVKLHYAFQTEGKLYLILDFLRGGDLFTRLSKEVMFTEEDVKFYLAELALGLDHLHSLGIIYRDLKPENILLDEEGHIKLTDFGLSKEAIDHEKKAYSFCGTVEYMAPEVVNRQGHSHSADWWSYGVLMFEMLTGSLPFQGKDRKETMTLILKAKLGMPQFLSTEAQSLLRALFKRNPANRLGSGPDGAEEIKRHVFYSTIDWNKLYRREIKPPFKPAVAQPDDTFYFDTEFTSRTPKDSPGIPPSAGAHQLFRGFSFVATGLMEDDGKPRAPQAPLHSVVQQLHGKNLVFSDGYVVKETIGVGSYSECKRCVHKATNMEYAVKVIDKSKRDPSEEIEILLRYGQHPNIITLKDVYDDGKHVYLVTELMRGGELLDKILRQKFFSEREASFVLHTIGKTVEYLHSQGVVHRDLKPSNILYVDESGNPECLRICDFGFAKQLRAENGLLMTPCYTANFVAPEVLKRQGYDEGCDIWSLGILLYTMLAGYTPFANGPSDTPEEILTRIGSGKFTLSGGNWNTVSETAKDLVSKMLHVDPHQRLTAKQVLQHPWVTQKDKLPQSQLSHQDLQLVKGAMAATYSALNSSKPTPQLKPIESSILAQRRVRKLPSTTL

Chain of MYLK (human) (Q15746 whole entry, looked up): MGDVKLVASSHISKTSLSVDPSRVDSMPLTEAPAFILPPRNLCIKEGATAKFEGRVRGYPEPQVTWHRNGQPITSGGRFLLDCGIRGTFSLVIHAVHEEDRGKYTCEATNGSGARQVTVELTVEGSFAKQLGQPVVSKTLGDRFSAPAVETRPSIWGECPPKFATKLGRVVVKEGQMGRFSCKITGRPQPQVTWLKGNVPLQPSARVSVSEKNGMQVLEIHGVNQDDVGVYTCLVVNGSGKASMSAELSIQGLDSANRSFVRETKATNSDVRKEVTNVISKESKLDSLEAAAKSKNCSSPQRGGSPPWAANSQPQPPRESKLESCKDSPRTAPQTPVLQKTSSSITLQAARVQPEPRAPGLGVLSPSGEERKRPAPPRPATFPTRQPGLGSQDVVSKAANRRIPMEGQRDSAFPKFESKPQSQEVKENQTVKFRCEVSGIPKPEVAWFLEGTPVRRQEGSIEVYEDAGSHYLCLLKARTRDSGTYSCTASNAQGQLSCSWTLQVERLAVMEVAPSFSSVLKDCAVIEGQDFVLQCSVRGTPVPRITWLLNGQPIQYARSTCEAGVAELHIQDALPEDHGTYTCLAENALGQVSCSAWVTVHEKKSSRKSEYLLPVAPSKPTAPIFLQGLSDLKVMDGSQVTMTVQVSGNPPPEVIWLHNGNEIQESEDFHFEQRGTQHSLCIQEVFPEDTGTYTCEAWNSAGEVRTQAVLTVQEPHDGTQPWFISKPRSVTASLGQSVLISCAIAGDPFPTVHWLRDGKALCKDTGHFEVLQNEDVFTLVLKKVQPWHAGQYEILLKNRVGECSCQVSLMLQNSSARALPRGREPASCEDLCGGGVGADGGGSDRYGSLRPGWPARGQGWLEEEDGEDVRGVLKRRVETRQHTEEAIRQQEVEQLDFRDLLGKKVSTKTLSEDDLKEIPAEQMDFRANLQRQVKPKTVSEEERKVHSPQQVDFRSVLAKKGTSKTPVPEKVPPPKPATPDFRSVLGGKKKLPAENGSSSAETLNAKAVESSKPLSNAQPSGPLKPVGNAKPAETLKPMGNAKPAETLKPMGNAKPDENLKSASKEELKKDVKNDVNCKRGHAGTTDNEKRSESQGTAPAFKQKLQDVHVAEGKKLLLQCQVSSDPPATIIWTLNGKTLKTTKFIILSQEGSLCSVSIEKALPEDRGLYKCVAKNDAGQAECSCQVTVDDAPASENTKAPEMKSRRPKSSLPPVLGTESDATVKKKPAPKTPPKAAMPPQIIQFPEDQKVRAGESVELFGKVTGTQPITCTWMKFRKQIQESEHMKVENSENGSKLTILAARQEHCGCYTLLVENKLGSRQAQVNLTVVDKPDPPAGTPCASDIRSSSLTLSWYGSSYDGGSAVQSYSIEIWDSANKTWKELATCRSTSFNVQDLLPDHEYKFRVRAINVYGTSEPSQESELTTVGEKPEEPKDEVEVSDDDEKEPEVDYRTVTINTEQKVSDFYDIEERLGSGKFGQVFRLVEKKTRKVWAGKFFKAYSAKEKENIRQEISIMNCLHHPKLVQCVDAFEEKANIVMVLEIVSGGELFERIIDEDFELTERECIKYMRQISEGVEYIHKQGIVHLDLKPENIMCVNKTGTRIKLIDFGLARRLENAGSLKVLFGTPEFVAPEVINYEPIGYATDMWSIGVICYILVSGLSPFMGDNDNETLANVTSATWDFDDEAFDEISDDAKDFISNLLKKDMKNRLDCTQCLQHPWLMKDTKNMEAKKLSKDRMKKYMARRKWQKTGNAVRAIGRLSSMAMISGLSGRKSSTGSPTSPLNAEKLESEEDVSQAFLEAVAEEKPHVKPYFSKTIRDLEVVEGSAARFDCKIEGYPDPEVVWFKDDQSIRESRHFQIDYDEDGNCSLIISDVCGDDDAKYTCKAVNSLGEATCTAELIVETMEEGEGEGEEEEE
Chain of CaMK1 (human) (Q14012 whole entry, looked up): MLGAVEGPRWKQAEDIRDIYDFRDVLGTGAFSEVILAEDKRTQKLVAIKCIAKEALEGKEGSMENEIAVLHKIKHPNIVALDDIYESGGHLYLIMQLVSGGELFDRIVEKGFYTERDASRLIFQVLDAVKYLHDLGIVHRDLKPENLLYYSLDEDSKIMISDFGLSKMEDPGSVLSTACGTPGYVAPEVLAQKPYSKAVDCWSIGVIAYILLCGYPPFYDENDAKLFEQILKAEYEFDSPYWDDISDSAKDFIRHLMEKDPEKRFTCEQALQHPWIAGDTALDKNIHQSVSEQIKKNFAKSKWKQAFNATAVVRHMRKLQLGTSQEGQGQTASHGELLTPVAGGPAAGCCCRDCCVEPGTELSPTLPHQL
Chain of HIPK1 (human) (Q86Z02 whole entry, looked up): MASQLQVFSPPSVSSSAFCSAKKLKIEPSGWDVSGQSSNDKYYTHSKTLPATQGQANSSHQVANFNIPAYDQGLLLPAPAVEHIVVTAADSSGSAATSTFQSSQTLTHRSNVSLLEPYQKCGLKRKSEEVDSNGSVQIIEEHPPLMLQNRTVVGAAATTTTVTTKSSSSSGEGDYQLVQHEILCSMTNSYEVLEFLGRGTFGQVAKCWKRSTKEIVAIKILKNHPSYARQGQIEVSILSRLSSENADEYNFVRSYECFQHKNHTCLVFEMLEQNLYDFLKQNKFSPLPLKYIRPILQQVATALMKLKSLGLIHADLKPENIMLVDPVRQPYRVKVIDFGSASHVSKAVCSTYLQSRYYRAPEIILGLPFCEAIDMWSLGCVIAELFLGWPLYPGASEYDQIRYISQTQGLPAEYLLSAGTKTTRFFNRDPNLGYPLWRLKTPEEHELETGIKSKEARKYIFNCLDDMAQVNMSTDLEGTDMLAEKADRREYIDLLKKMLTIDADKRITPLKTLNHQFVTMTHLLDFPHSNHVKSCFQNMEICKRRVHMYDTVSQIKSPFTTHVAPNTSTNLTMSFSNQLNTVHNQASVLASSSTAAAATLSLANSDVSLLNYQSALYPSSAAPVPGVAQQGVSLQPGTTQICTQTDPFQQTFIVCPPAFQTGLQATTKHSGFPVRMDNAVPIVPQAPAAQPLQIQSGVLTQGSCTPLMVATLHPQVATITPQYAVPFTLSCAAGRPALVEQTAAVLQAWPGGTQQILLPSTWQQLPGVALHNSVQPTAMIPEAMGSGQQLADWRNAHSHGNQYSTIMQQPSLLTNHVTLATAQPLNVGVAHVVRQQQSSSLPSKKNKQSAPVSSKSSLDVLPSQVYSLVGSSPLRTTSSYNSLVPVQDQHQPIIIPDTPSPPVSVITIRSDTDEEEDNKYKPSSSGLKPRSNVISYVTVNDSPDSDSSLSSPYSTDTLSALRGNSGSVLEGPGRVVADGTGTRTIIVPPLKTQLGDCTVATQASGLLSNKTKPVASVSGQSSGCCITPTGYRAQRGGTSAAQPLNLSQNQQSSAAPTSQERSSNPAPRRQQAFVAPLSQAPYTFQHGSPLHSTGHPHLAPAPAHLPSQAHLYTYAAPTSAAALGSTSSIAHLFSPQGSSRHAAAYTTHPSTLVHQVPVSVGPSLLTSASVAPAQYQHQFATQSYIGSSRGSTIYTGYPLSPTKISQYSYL
Chain of CHEK1 (human) (O14757 whole entry, looked up): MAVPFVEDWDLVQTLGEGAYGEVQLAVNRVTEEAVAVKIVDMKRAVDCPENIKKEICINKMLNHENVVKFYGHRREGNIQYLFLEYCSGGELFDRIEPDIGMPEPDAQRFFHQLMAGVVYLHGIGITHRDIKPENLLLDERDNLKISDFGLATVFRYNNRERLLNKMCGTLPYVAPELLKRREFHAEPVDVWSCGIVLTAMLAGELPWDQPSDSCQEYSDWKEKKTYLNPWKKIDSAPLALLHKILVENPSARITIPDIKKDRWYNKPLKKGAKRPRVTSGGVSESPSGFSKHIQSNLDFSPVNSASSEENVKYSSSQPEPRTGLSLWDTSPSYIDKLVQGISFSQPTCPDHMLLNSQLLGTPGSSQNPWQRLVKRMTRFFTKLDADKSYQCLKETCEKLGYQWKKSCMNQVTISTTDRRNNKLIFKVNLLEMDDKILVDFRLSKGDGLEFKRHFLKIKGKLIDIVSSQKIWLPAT
Chain of AURKB (human) (Q96GD4 whole entry, looked up): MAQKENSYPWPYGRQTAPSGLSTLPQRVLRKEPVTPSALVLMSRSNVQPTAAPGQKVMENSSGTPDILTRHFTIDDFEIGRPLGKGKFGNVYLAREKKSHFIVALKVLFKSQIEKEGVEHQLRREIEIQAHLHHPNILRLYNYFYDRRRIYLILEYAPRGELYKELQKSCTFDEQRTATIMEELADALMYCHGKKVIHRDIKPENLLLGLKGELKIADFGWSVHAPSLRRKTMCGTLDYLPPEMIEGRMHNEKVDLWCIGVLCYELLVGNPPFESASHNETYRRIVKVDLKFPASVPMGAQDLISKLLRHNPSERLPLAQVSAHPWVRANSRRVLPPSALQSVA

CNc1nc(-c2ccc3c(N)n[nH]c3c2)cc(N2C[C@@H](C(=O)NC3CCCCC3)CC[C@H]2C)n1
residual activity (MAPK11 (human); compound 0.01 µM): 113% | residual activity (MAPK11 (human); compound 0.1 µM): 129% | residual activity (MAPK11 (human); compound 1.0 µM): 109% | residual activity (TTK (human); compound 0.01 µM): 90% | residual activity (TTK (human); compound 0.1 µM): 98% | residual activity (TTK (human); compound 1.0 µM): 82% | residual activity (SYK (human); compound 0.01 µM): 109% | residual activity (SYK (human); compound 0.1 µM): 105% | residual activity (SYK (human); compound 1.0 µM): 103% | residual activity (MAPK1 (human); compound 0.01 µM): 117% | residual activity (MAPK1 (human); compound 0.1 µM): 111% | residual activity (MAPK1 (human); compound 1.0 µM): 99% | residual activity (MAP2K1 (human); compound 0.01 µM): 86% | residual activity (MAP2K1 (human); compound 0.1 µM): 101% | residual activity (MAP2K1 (human); compound 1.0 µM): 84% | residual activity (MAPKAPK5 (human); compound 0.01 µM): 81% | residual activity (MAPKAPK5 (human); compound 0.1 µM): 92% | residual activity (MAPKAPK5 (human); compound 1.0 µM): 76% | residual activity (MYLK (human); compound 0.01 µM): 116% | residual activity (MYLK (human); compound 0.1 µM): 113% | residual activity (MYLK (human); compound 1.0 µM): 92% | residual activity (IRAK4 (human); compound 0.01 µM): 109% | residual activity (IRAK4 (human); compound 0.1 µM): 112% | residual activity (IRAK4 (human); compound 1.0 µM): 106% | residual activity (BRSK2 (human); compound 0.01 µM): 114% | residual activity (BRSK2 (human); compound 0.1 µM): 110% | residual activity (CSNK2A1 (human); compound 0.01 µM): 103% | residual activity (CSNK2A1 (human); compound 0.1 µM): 104% | residual activity (CSNK2A1 (human); compound 1.0 µM): 94% | residual activity (MAPK15 (human); compound 0.01 µM): 106% | residual activity (MAPK15 (human); compound 0.1 µM): 117% | residual activity (MAPK15 (human); compound 1.0 µM): 107% | residual activity (EEF2K (human); compound 0.01 µM): 108% | residual activity (EEF2K (human); compound 0.1 µM): 100% | residual activity (EEF2K (human); compound 1.0 µM): 97% | residual activity (AURKB (human); compound 0.01 µM): 105% | residual activity (AURKB (human); compound 0.1 µM): 106% | residual activity (AURKB (human); compound 1.0 µM): 83% | residual activity (MAPK10 (human); compound 0.01 µM): 106% | residual activity (MAPK10 (human); compound 0.1 µM): 106% | residual activity (MAPK10 (human); compound 1.0 µM): 100% | residual activity (BRSK1 (human); compound 0.01 µM): 110% | residual activity (BRSK1 (human); compound 0.1 µM): 95% | residual activity (BRSK1 (human); compound 1.0 µM): 57% | residual activity (INSR (human); compound 0.01 µM): 101% | residual activity (INSR (human); compound 0.1 µM): 103% | residual activity (INSR (human); compound 1.0 µM): 102% | residual activity (MAPKAPK3 (human); compound 0.01 µM): 112% | residual activity (MAPKAPK3 (human); compound 0.1 µM): 112% | residual activity (MAPKAPK3 (human); compound 1.0 µM): 100% | residual activity (PAK4 (human); compound 0.01 µM): 108% | residual activity (PAK4 (human); compound 0.1 µM): 117% | residual activity (PAK4 (human); compound 1.0 µM): 106% | residual activity (GSK3B (human); compound 0.01 µM): 108% | residual activity (GSK3B (human); compound 0.1 µM): 111% | residual activity (GSK3B (human); compound 1.0 µM): 109% | residual activity (MST4 (human); compound 0.01 µM): 112% | residual activity (MST4 (human); compound 0.1 µM): 108% | residual activity (MST4 (human); compound 1.0 µM): 119% | residual activity (NEK6 (human); compound 0.01 µM): 98% | residual activity (NEK6 (human); compound 0.1 µM): 101% | residual activity (NEK6 (human); compound 1.0 µM): 97% | residual activity (MARK3 (human); compound 0.01 µM): 113% | residual activity (MARK3 (human); compound 0.1 µM): 109% | residual activity (MARK3 (human); compound 1.0 µM): 114% | residual activity (RPS6KA3 KD1 KD2 (human); compound 0.01 µM): 96% | residual activity (RPS6KA3 KD1 KD2 (human); compound 0.1 µM): 97% | residual activity (RPS6KA3 KD1 KD2 (human); compound 1.0 µM): 79% | residual activity (CHEK1 (human); compound 0.01 µM): 111% | residual activity (CHEK1 (human); compound 0.1 µM): 106% | residual activity (CHEK1 (human); compound 1.0 µM): 104% | residual activity (CSK (human); compound 0.01 µM): 103% | residual activity (CSK (human); compound 0.1 µM): 104% | residual activity (CSK (human); compound 1.0 µM): 100% | residual activity (RPS6KA5 KD1 KD2 (human); compound 0.01 µM): 102% | residual activity (RPS6KA5 KD1 KD2 (human); compound 0.1 µM): 100% | residual activity (RPS6KA5 KD1 KD2 (human); compound 1.0 µM): 94% | residual activity (HIPK1 (human); compound 0.01 µM): 102% | residual activity (HIPK1 (human); compound 0.1 µM): 105% | residual activity (HIPK1 (human); compound 1.0 µM): 102% | residual activity (CaMK1 (human); compound 0.01 µM): 108% | residual activity (CaMK1 (human); compound 0.1 µM): 112% | residual activity (CaMK1 (human); compound 1.0 µM): 117% | residual activity (RPS6KA1 KD1 KD2 (human); compound 0.01 µM): 123% | residual activity (RPS6KA1 KD1 KD2 (human); compound 0.1 µM): 113% | residual activity (RPS6KA1 KD1 KD2 (human); compound 1.0 µM): 94%
